{
  "source": "patent US4315018A",
  "about": "“Specific parasiticidal use of 2-benzamido-5-nitro-thiazole derivatives” (priority 1978, dated 1982)",
  "key": {"Dypilidium caninum": {"system": "Dypilidium caninum", "experiment": "Treatment of Dypilidium caninum in dogs (natural infection)", "assay_type": "in vivo", "settings": "100 mg/kg, tablets containing 0.5 gram, necropsy 21 days after treatment", "text": "In general, the testing procedure was substantially the same as in Example 1 except necropsy 21 days after treatment. The treatment was 100% effective."}, "hookworms": {"system": "hookworms", "experiment": "Treatment of nematodes in dogs: hookworms", "assay_type": "in vivo", "text": "(§1) The general testing procedure was that of Example 1. […] 100% efficacy against whipworms and 65% efficacy against hookworms were found upon necropsy 4 days after treatment using a single dose treatment."}, "Echinococus granulosus": {"system": "Echinococus granulosus", "experiment": "Treatment of Echinococus granulosus in dogs (experimental infection)", "assay_type": "in vivo", "settings": "200 mg/kg, 0.5 gram tablets, treated 4 or 6 weeks after infection, necropsy 4 days after treatment", "description": "Again, the general testing procedure was that of Example 1. This time 16 dogs to be treated were experimentally infected and divided into two groups along with 4 infected control dogs in each group. The 8 dogs of Group 1 were treated 4 weeks after infection, and the 8 dogs of Group 2 were treated 6 weeks after infection, each at a dose of 200 mg/kg, using the 0.5 gram active ingredient tablets. 100% efficacy of the single dose treatment was found upon necropsy 4 days after treatment."}, "[1]": {"experiment": "Necropsy observations in treated lambs", "assay_type": "in vivo", "settings": "48 hours after treatment", "description": "(§2) Seven lambs (Group 1, black) were given a single 100 mg/kg of body weight dose of the test material dissolved in a mixture of water and gum syrup (0.5 ml/kg of body weight) orally administered with a syringe.\n(§3) Seven lambs (Group 2, red) were given a single 50 mg/kg of body weight dose of the test material dissolved in a mixture of water and gum syrup (0.5 ml/kg of body weight) orally administered with a syringe.\n(§4) 48 hours after treatment, necroscopies were performed."}, "Taenia pisiformis": {"system": "Taenia pisiformis", "experiment": "Treatment of Taenia pisiformis in dogs (experimental infection, single oral dose)", "assay_type": "in vivo, dogs (beagles)", "description": "Fifteen beagles (8 male and 7 female), ranging in age from 8 to 30 months, were individually housed in stainless-steel cages and fed with commercial dog food. Water was provided ad libitum. After 2 weeks acclimatization, each dog was exposed to infection by administering orally 14-20 cysts containing Taenia pisiformis strobilocerci obtained 24 hours before from wild rabbits. Vitality of the cysts was verified by evagination in bile of the dog.\nSeven dogs (Group 1) were given the drug 6 weeks after infection with Taenia pisiformis, and the other 8 dogs (Group 2) were given the drug 8 weeks after infection.\n(§5) Food and water intake, faecel consistency, vomiting, general appearance and behavior were recorded hourly during the day of treatment and twice daily thereafter.\nThe tapeworms that were found were then removed, counted and examined for scolices.\nThe emission time of the faeces for each dog was recorded during the day, when possible.\nNineteen days after treatment for Group 1, and 4 days after treatment for Group 2, the dogs were killed and the small intestines were examined in order to reveal the presence of Taenia spp. This 19-day waiting period for Group 1 allowed time for any viable scolices to redevelop, thus making them more easily visible at necropsy.\nThe intestines and intestinal contents from the pyloric portion of the stomach through the rectum were thoroughly examined for parasites."}, "Moniezia spp.": {"system": "Moniezia spp.", "experiment": "Treatment of Moniezia expansa in lambs (natural infestation)", "assay_type": "in vivo", "description": "(§6) Twenty lambs spontaneously infested by nematodes and cestodes were removed from a flock near Limoges (Haute-Vienne), France. They were housed in sheepfold --concentrate food, 1 kg per day per lamb, water and hay, ad libitum, were provided.\n(§7) The animals were assigned to treatment groups as indicated below:\nas §2, §3\n(§8) Six lambs (Group 3, blue) were given 0.5 ml/kg of body weight of a mixture of water and gum syrup orally administered with a syringe.\nas §4\n(§9) Scolices and gastro intestinal worm counts were carried out."}, "[2]": {"experiment": "Side effects of treatment in Taenia pisiformis-infected dogs", "assay_type": "in vivo, dogs (beagles)", "settings": "75 mg/kg, 15 dogs", "description": "as §5"}, "whipworms": {"system": "whipworms", "experiment": "Treatment of nematodes in dogs: whipworms", "assay_type": "in vivo", "settings": "100 mg/kg single dose, tablets containing 0.5 g, 3 dogs, necropsy 4 days after treatment", "text": "as §1"}, "[3]": {"experiment": "Toxicity study in cats, single doses", "assay_type": "in vivo", "text": "(§10) Additional toxicity studies have been carried out in cats and dogs, which can be summarized as follows.\nThe lethal dose of the test material in cats is greater than 10 g/kg."}, "[4]": {"experiment": "Toxicity study in dogs, single doses", "assay_type": "in vivo", "text": "as §10\nThe lethal dose of the test material in dogs is greater than 10 g/kg."}, "[5]": {"system": "Gastro-Intestinal Nematodes", "experiment": "Gastro-intestinal nematodes in lambs, worm counts", "assay_type": "in vivo", "description": "as §6\nTo confirm the infestation, faeces were taken from the rectum 48 hours prior to treatment and the number of eggs counted.\nas §7, §2, §3, §8, §4, §9"}, "[6]": {"settings": "single dose 100 mg/kg, 7 naturally infested lambs"}},
  "note": "Entries after “also recorded” stand apart in the source; their conditions may differ.",
  "data": [
    {"compound": "CC(=O)Oc1ccccc1C(=O)Nc1ncc([N+](=O)[O-])s1", "note": "[PH 5776, 2-(2'-acetoxy)-benzamido-5-nitro-thiazole]", "values": [
      {"measurement": "Effectiveness of treatment", "setting": "Dypilidium caninum", "result": 100, "unit": "%"},
      {"measurement": "Efficacy against hookworms", "setting": "hookworms; 100 mg/kg single dose, tablets containing 0.5 g, 3 dogs, necropsy 4 days after treatment", "result": 65, "unit": "%"},
      {"measurement": "Efficacy against hookworms", "setting": "hookworms; 3 repeated doses of 100 mg/kg at an interval of 7 days", "result": 93, "unit": "%"},
      {"measurement": "Efficacy of the single dose treatment", "setting": "Echinococus granulosus", "result": 100, "unit": "%"},
      {"measurement": "Changes in the internal organs and coloration of the tissues", "setting": "[1]; 100 or 50 mg/kg", "result": "No changes in the internal organs and no coloration of the tissues were observed"},
      {"measurement": "Coloration of small intestine wall tissues", "setting": "[1]; treated groups (100 or 50 mg/kg)", "result": "slightly colored yellow"},
      {"measurement": "Effectiveness against Taenia pisiformis", "setting": "Taenia pisiformis; 75 mg of body weight", "result": "effective"},
      {"measurement": "Tapeworm material in faeces after the 14th hour", "setting": "Taenia pisiformis; 75 mg/kg", "result": "not found"},
      {"measurement": "Tapeworms at necropsy (in words)", "setting": "Taenia pisiformis; 75 mg/kg, 15 dogs, day 19 (Group 1) and day 4 (Group 2)", "result": "tapeworms were not found in any of the 15 dogs; also recorded: None of the dogs on study were positive for tapeworms"},
      {"measurement": "Number of dogs showing tapeworm material in the faeces", "setting": "Taenia pisiformis; Group 1 (7 dogs), 75 mg/kg", "result": 5, "unit": "dogs"},
      {"measurement": "Tapeworm Material In Faeces (8th-14th Hour)", "setting": "Taenia pisiformis; Group 1, 75 mg/kg, 6 weeks after infection", "result": "yes and no"},
      {"measurement": "Number of dogs showing tapeworm material in the faeces", "setting": "Taenia pisiformis; Group 2 (8 dogs), 75 mg/kg", "result": 6, "unit": "dogs"},
      {"measurement": "Tapeworm Material In Faeces (8th-14th Hour)", "setting": "Taenia pisiformis; Group 2, 75 mg/kg, 8 weeks after infection", "result": "yes and no"},
      {"measurement": "Number of dogs showing tapeworm material in the faeces", "setting": "Taenia pisiformis; Groups 1 and 2, out of 15 dogs, 75 mg/kg", "result": 11, "unit": "dogs"},
      {"measurement": "Efficacy against Moniezia spp. (in words)", "setting": "Moniezia spp.; 50 mg/kg", "result": "the efficacy is decreasing"},
      {"measurement": "Number of lambs negative after treatment", "setting": "Moniezia spp.; 50 mg/kg", "result": 3, "unit": "lambs"},
      {"measurement": "Number of lambs still infested with the cestoda", "setting": "Moniezia spp.; Group 2 (red), 50 mg/kg, 48 hours after treatment", "result": 3, "unit": "lambs"},
      {"measurement": "Activity against Moniezia spp.", "setting": "Moniezia spp.; [6]", "result": "~100", "unit": "%"},
      {"measurement": "Activity against Moniezia spp. (in words)", "setting": "Moniezia spp.; [6]", "result": "very active"},
      {"measurement": "Undesirable side effects of the treatment", "setting": "[2]", "result": "not found in any of the 15 dogs"},
      {"measurement": "Efficacy against whipworms", "setting": "whipworms", "result": 100, "unit": "%"},
      {"measurement": "Lethal dose", "setting": "[3]", "result": "greater than 10 g/kg"},
      {"measurement": "Necropsy findings", "setting": "[3]", "result": "slight yellow discoloration of the renal cortex"},
      {"measurement": "Signs of intoxication (central nervous system)", "setting": "[3]; doses of 5 and 10 g/kg", "result": "a suggestion of central nervous system depression"},
      {"measurement": "Signs of intoxication", "setting": "[3]; single doses of 1 g/kg", "result": "Minimal signs (slight diarrhea) of intoxication"},
      {"measurement": "Route of excretion", "setting": "[3]; suggested from necropsy findings", "result": "urine as a route of excretion"},
      {"measurement": "Lethal dose", "setting": "[4]", "result": "greater than 10 g/kg"},
      {"measurement": "Signs of intoxication", "setting": "[4]; single doses of 1, 5 or 10 g/kg", "result": "Minimal signs of intoxication related to gastro-intestinal distress"},
      {"measurement": "After Treatment At Necroscopies: Number Of Worms, Large Intestine", "setting": "[5]; Group 1, 100 mg/kg", "result": 0},
      {"measurement": "Effect on round worms / gastro-intestinal nematodes (in words)", "setting": "[5]; lambs, 48 hours after treatment, 50 and 100 mg/kg", "result": "no toxic effect on any of the present round worms; also recorded: does not reveal any efficacy; also recorded: no activity"}
    ]}
  ]
}
